Measurements published in the NIST ThermoML archive (doi:10.1016/j.jct.2004.05.008).

Experiments:
[1] = Crystal
[2] = Molar enthalpy of transition or fusion; conditions: Crystal
[3] = molar heat capacity at constant pressure; conditions: 101.33 kPa

O=C1OC(=O)C2=C1CCCC2 [3,4,5,6-tetrahydrophthalic anhydride]
Conditions | Molar enthalpy of transition or fusion [kcal/mol] | Triple point temperature [K]
[1] | – | 343.46
[2] | 2.839 | –

[3]
Conditions | molar heat capacity at constant pressure [J/K/mol]
80.34 K, Crystal | 56.23
83.47 K, Crystal | 56.18
86.53 K, Crystal | 56.31
89.58 K, Crystal | 56.4
92.48 K, Crystal | 56.87
95.3 K, Crystal | 57.18
98.08 K, Crystal | 57.46
100.82 K, Crystal | 57.84
103.56 K, Crystal | 57.96
106.09 K, Crystal | 58.31
108.63 K, Crystal | 58.53
111.12 K, Crystal | 58.74
113.61 K, Crystal | 59.12
116.02 K, Crystal | 59.31
118.43 K, Crystal | 59.66
120.75 K, Crystal | 60.05
123.08 K, Crystal | 60.42
125.35 K, Crystal | 60.99
127.64 K, Crystal | 61.14
129.84 K, Crystal | 61.87
132.12 K, Crystal | 62.27
134.33 K, Crystal | 62.87
136.53 K, Crystal | 63.57
138.65 K, Crystal | 64.15
140.81 K, Crystal | 64.74
142.92 K, Crystal | 65.78
145.08 K, Crystal | 66.49
147.12 K, Crystal | 67.22
149.15 K, Crystal | 68.03
151.27 K, Crystal | 69
153.3 K, Crystal | 69.87
155.3 K, Crystal | 70.76
157.37 K, Crystal | 71.32
159.37 K, Crystal | 72.03
161.36 K, Crystal | 72.91
163.27 K, Crystal | 73.95
165.22 K, Crystal | 74.97
167.13 K, Crystal | 76.01
169.12 K, Crystal | 76.73
171.05 K, Crystal | 77.91
172.94 K, Crystal | 78.5
174.85 K, Crystal | 79.78
176.72 K, Crystal | 80.51
178.63 K, Crystal | 81.53
180.46 K, Crystal | 82.71
182.28 K, Crystal | 83.6
184.11 K, Crystal | 84.61
185.95 K, Crystal | 85.45
187.77 K, Crystal | 86.62
189.63 K, Crystal | 87.81
191.38 K, Crystal | 88.82
193.21 K, Crystal | 89.85
194.95 K, Crystal | 91.18
196.74 K, Crystal | 92.52
198.56 K, Crystal | 93.84
200.32 K, Crystal | 95.12
202.04 K, Crystal | 96
203.79 K, Crystal | 97.45
205.5 K, Crystal | 99.08
207.28 K, Crystal | 100.34
208.94 K, Crystal | 101.59
210.65 K, Crystal | 102.87
212.31 K, Crystal | 103.87
214.01 K, Crystal | 105.32
215.67 K, Crystal | 106.26
217.29 K, Crystal | 107.56
218.95 K, Crystal | 108.78
220.53 K, Crystal | 109.96
222.27 K, Crystal | 111.19
223.72 K, Crystal | 112.09
225.46 K, Crystal | 113.46
227.04 K, Crystal | 114.91
228.58 K, Crystal | 116.07
230.24 K, Crystal | 117.61
231.74 K, Crystal | 119.05
233.19 K, Crystal | 120.59
234.7 K, Crystal | 122.14
236.22 K, Crystal | 123.06
237.68 K, Crystal | 124.72
239.17 K, Crystal | 126.14
240.66 K, Crystal | 127.28
242.12 K, Crystal | 128.82
243.56 K, Crystal | 131.28
244.92 K, Crystal | 131.95
246.4 K, Crystal | 132.94
247.8 K, Crystal | 133.95
249.31 K, Crystal | 135.13
250.75 K, Crystal | 136.4
252.21 K, Crystal | 137.63
253.66 K, Crystal | 138.64
255.1 K, Crystal | 140.01
256.48 K, Crystal | 141.43
257.94 K, Crystal | 143.17
259.38 K, Crystal | 144.54
260.76 K, Crystal | 146.26
262.22 K, Crystal | 147.86
263.56 K, Crystal | 149.6
264.98 K, Crystal | 151.29
266.44 K, Crystal | 153.66
267.8 K, Crystal | 155.02
269.17 K, Crystal | 156.54
270.62 K, Crystal | 158.31
271.99 K, Crystal | 160.29
273.83 K, Crystal | 162.61
276.06 K, Crystal | 165.27
278.26 K, Crystal | 168.2
280.47 K, Crystal | 170.86
282.77 K, Crystal | 174.18
285 K, Crystal | 177.2
287.13 K, Crystal | 180
289.24 K, Crystal | 183.15
291.4 K, Crystal | 185.52
293.54 K, Crystal | 188.07
295.62 K, Crystal | 190.23
297.76 K, Crystal | 193.49
299.9 K, Crystal | 196.12
302.04 K, Crystal | 198.91
304.16 K, Crystal | 201.6
306.28 K, Crystal | 204.33
308.44 K, Crystal | 208.09
310.59 K, Crystal | 210.93
312.73 K, Crystal | 214.84
314.77 K, Crystal | 218
316.97 K, Crystal | 220.39
319 K, Crystal | 224.36
321.06 K, Crystal | 227.34
323.12 K, Crystal | 231.9
325.11 K, Crystal | 237.01
327.12 K, Crystal | 241.19
329.09 K, Crystal | 246.67
330.99 K, Crystal | 261.9
346.46 K, Liquid | 275.09
348.18 K, Liquid | 275.94
350 K, Liquid | 277.07
351.67 K, Liquid | 278.18
353.41 K, Liquid | 279.59
355.08 K, Liquid | 280.65
356.67 K, Liquid | 281.82
360.3 K, Liquid | 284.63
